Assay results as given in patent publication US9802880B2, “Cannabigerol derivatives” (VIVACELL BIOTECHNOLOGY ESPAÑA S.L., priority 2014, dated 2017).

Columns and labels:
[1] = tested on: Ccl2, iNOs, TNFα, IFNg, IL-1b and IL-17; experiment: EAE, pro-inflammatory gene expression in spinal cord (real-time PCR); type: in vivo, C57BL/6 mice; details: EAE mice, 10 mg/kg, vs EAE+vehicle, FIG. 7
Experimental: Gene expression of inflammatory markers including CCL2, IFNγ, INOS, TNFα, IL-1β and IL-17 in the spinal cord was down regulated in EAE+compound (III) (10 mg/kg) group compared with EAE+Vehicle mice. Expression levels were calculated using the 2^−ΔΔct method.
EAE was induced in female C57BL/6 mice at 6-8 weeks of age by subcutaneous immunization with myelin oligodendrocyte glycoprotein polypeptide (MOG35-55) (300 μg) and 200 μg of Mycobacterium tuberculosis (H37Ra Difco, Franklin Lakes, N.J., USA) in a 1:1 mix with […] Freund's adjuvant (CFA, Sigma-Aldrich, Madrid, Spain). […] The mice were examined daily for clinical signs of EAE and disease scores were measured as follows: 0, no disease; 1, limp tail; 2, limp tail and hind limb weakness; 3, hind limb paralysis; 4, hind limb and front limb paralysis; 5, moribund and death. […]
Total RNA was isolated from striata (3NP model) or spinal cord (EAE model) using RNeasy Lipid Tissue Mini Kit (Qiagen, GmbH). The total amount of RNA extracted was quantitated by spectrometry at 260 nm and its purity from the ratio between the absorbance values at 260 and 280 nm. […] The iQ™ SYBR Green Supermix (Bio-Rad) was used to quantify mRNA levels for COX-2, TNF-α, IL-6, IL-17, IL-1β, IFN-γ, CCL-2 or iNOS depending on disease's model. […] Expression levels were calculated using the 2^−ΔΔct method.

PPARg [2] = experiment: PPARg transactivation assay in human dermal primary fibroblasts; type: cell-based; details: 6 h treatment, FIG. 2
Text: FIG. 2. PPARg Transactivation Assays in Human Dermal Primary Fibroblasts.

EAE mice = experiment: Experimental autoimmune encephalomyelitis (EAE), clinical score; type: in vivo, C57BL/6 mice
Experimental: C57BL/6 mice were immunized with MOG35-55 and their clinical score evaluated daily. Mice were treated daily with compound (III) (10 mg/kg) on day 6 post-immunization and the 21 following days. […] Values are expressed as means±SEM for 10 animals per group.
C57BL/6 mice were immunized with MOG35-55 and their clinical score evaluated daily. Mice were treated daily with compound (XII) (5 mg/kg) on day 6 post-immunization and the 21 following days. […] Values are expressed as means±SEM for 6 animals per group.
EAE was induced in female C57BL/6 mice at 6-8 weeks of age by subcutaneous immunization with myelin oligodendrocyte glycoprotein polypeptide (MOG35-55) (300 μg) and 200 μg of Mycobacterium tuberculosis (H37Ra Difco, Franklin Lakes, N.J., USA) in a 1:1 mix with […] Freund's adjuvant (CFA, Sigma-Aldrich, Madrid, Spain). On the same day and 2 days later, mice were injected intraperitoneally (ip) with 200 ng of pertussis toxin (Sigma-Aldrich, Madrid, Spain) in 0.1 ml PBS. […] Treatment started at day 6 post-immunization (p.i.) and consisted in daily injections of compounds III (FIG. 6) and XII (FIG. 8) at the indicated doses or of the vehicle alone (DMSO/PBS) for the following 21 days. The mice were examined daily for clinical signs of EAE and disease scores were measured as follows: 0, no disease; 1, limp tail; 2, limp tail and hind limb weakness; 3, hind limb paralysis; 4, hind limb and front limb paralysis; 5, moribund and death. All animals were sacrificed 28 days (p.i.) for further analysis. Once sacrificed, animals were dissected and their spinal cords were rapidly removed and quickly frozen in RNAlater (Sigma-Aldric, Germany).

PPARg [3] = experiment: PPARg transactivation assay in HEK-293 cells (GAL4-PPARγ / GAL4-luc); details: HEK-293 cells, 6 h treatment, FIG. 1
N2a cells = experiment: Neuroprotection assay, glutamate-induced excitotoxicity in N2a cells; type: cell-based; details: 1 h pre-incubation, then 5 mM glutamate 24 h, FIG. 5
Experimental: N2a cells were pre-incubated for 1 h with compounds (II) to (V) and (XII) at the indicated concentrations. Then, cells were treated for 24 h with 5 mM glutamate to induce excitotoxicity, or cytotoxicity in neuronal cells induced by neurotransmitters. Cell viability was quantified by MTT assay. […] Control was set as 100% and data were referred to that value.
Cultured N2A cells were pre-incubated with the compounds II, III, IV, V and XII at the indicated concentrations for 1 h and then treated with 5 mM glutamate to induce excitotoxicity during 24 h (FIG. 5). Cytotoxicity was determined by the MTT method as described in example 3. Results are shown as mean±S.D. from at least three independent experiments, and expressed as percentage of cell viability against the control sample (−). Control was set as 100% and data were referred to that value.

PPARg [4] = tested on: PPARg
[5] = tested on: COX-2, iNOS, TNFα and IL-6; experiment: 3NP model, inflammatory marker mRNAs in the striatum (real-time PCR); type: in vivo, C57BL/6 mice; details: 3NP-treated mice, 10 mg/kg, FIG. 10 and FIG. 11
Experimental: Gene expression of inflammatory markers including COX-2, TNFα, IL-6 and iNOS, was down regulated in 3NP+compound III (10 mg/kg) treated mice compared with 3NP+Vehicle mice. Expression levels were calculated using the 2^−ΔΔct method. Values are expressed as means±SEM for 6 animals per group.
Gene expression of inflammatory markers including COX-2, TNFα, IL-6 and iNOS, was down regulated in 3NP+XII (10 mg/kg) treated mice compared with 3NP+Vehicle mice. Expression levels were calculated using the 2^−ΔΔct method. Values are expressed as means±SEM for 6 animals per group.
Lesions of the striatum were induced with 3-NP in adult (16 week old; 30 g) male C57BL/6 mice (Harlan Ibérica, Barcelona, Spain). […] The right hemisphere was used to dissect the striatum, which was quickly frozen in RNAlater (Sigma-Aldrich, Germany) to analyzed inflammatory markers were by Real Time PCR. […] We evaluated the general locomotor activity, the hindlimb clasping and dystonia, and the truncal dystonia. […]
Total RNA was isolated from striata (3NP model) or spinal cord (EAE model) using RNeasy Lipid Tissue Mini Kit (Qiagen, GmbH). The total amount of RNA extracted was quantitated by spectrometry at 260 nm and its purity from the ratio between the absorbance values at 260 and 280 nm. […] Expression levels were calculated using the 2^−ΔΔct method.

CCCCCC1=C(NCC)C(=O)C(C/C=C(\C)CCC=C(C)C)=C(O)C1=O [Compound III, 6-(3,7-dimethyl-octa-2,6-dienyl)-5-hydroxy-3-pentyl-2-ethylamino-[1,4]benzoquinone]
expression of proinflammatory genes Ccl2, iNOs, TNFα, IFNg, IL-1b and IL-17 in the spinal cord [1]: significant decrease | PPARg activation (fold) compared with CBG-Q (PPARg [2]): higher efficiency than CBG-Q | clinical manifestations of EAE (EAE mice; 10 mg/kg daily from day 6 post-immunization for 21 days, FIG. 6): clearly attenuated | EAE clinical score throughout the experiment (day 6-day 28) (EAE mice; 10 mg/kg daily, score scale 0-5, vehicle-treated mice reached 2.5): < 1.3 | day on which the disease peaked (EAE mice; 10 mg/kg daily, vehicle-treated mice peaked by day 16): 17 day post-injection | PPARg activation (fold) compared with CBG-Q (PPARg [3]): higher efficiency than CBG-Q | protection from glutamate-induced cytotoxicity (cell viability, MTT) (N2a cells): protect neuronal cells from glutamate-induced apoptosis | PPARg transactivation (luciferase activity, fold induction over untreated cells) (PPARg [4]): most active compounds | up-regulation of pro-inflammatory markers COX-2, iNOS, TNFα and IL-6 in the striatum [5]: attenuated the up-regulation
